Results reported in patent US9227955B2, “Compound having angiogenesis inhibitory activity, method for preparing same, and pharmaceutical composition comprising same” (Boryung Pharmaceutical Co., Ltd., priority 2011, dated 2016).
Entries after “also recorded” stand apart in the source; their conditions may differ. Marks after values point to notes of the source that are not given here.

How the values were obtained:
[1] = tested on: HUVECs (human umbelical vein endothelial cells); assay: Transwell assay, VEGF-induced cell migration in HUVECs; format: cell-based; details: for suppression of VEGF-induced migration of HUVECs, in words: transwell assay, text on Tables 3 and 4
Protocol: To examine the inhibitory effect of the compounds obtained in the Examples on VEGF (Vascular endothelial growth factor)-induced cell migration in HUVECs (human umbelical vein endothelial cells), a transwell assay was performed as follows.
HUVECs, provided from ATCC (American Type Culture Collection), were incubated in EGM-2 (Endothelial growth Medium-2 Medium) including 10% FBS, penicillin (100 unit/ml) and 100 μg/ml streptomycin sulfate plus various growth factors at 37° C. in an atmosphere of 5% CO2. After the change of the medium with growth factor-free EBM-2 (Endothelial Basal Medium-2 Medium), the cells were subjected to transwell assay.
After for 24 hours, the cells were fixed for 1 min with ethanol and were stained with a dye. Cell migration was evaluated by counting cells which moved through the pores.
In addition, cells were treated with Compound No. 250 (Example 26) at various concentrations given in Table 3, and assayed for cell migration, as conducted with Compounds 103, 110, 218, 273, 275, 276, 290, 312, 428, 442, and 509. The results were compared with those obtained after non-treatment (no treat) or treatment with 10 ng/mL VEGF.
Results were expressed as average numbers (n=3) of HUVECs which moved cross the membrane. Test results are summarized in Table 3 for compounds 103, 110, 218, 273, 275, 276, 290, 312, 428, 442, and 509, and in Table 4 for compound 250.

HUVECs [2] = assay: Wound healing assay, VEGF-induced migration of HUVECs; format: cell-based, human; details: for suppression of VEGF-induced migration of HUVECs, in words: wound healing assay, text on Tables 5 and 6
Protocol: Using a sterile, disposable cell scraper (BD Falcon, Bedford, USA), a monolayer of HUVECs was scraped, and the cells were gently washed with PBS. […] After 24 hours, the cell migration were monitored through the scraped monolayer of the cell and photographed under a microscope equipped with a camera (Canon Powershot640).
Also, Compound 250 (Example 26) was applied at various concentrations shown in Table 6 in the same manner as Compound 103, followed by monitoring and photographing the migration of the cells under the microscope. For comparison, the cells were not treated (control) or were treated with 10 ng/mL VEGF, alone.

[3] = tested on: aortic rings excised from Spague-Dawley rats; assay: Ex vivo microvessel sprouting assay, rat aortic rings; details: 10 nM, 50 nM, 100 nM, FIG. 6
Protocol: Likewise, after the aortic rings excised from six-week-old Spague-Dawley rats were treated with various concentrations (10 nM, 50 nM, 100 nM) of Compound 250 (Example 26) and then with VEGF, Sprouts from margins of the aortic rings were photographed under a microscope equipped with a camera, like Compound 103.

HUVECs [4] = assay: VEGF-induced tube formation of HUVECs (capillary structure formation assay); format: cell-based, human; details: for suppression of VEGF-induced tube formation, in words: Tables 9 and 10
Protocol: After HUVECs were seeded at a density of 3×10^5 cells/well into Matrigel-coated 48-well plates, HUVECs were with 10 ng/ml VEGF for 4 hrs. The HUVECs where tubes were formed were monitored and photographed under a microscope equipped with a camera to count cells.
HUVECs were also treated with Compound 250 (Example 26) at various concentrations given in Table 10, The HUVECs where tubes were formed were monitored and photographed under a microscope equipped with a camera, like Compound 103.

[5] = Cell viability MTS assay (cytotoxicity); format: cell-based; details: human; A-431 cells, 48 hrs incubation; read-out: IC50, MTS assay for cytotoxicity against A-431
Protocol: A-431 ([…], human, ATCC CRL-1555™) cells grown in DMEM (Dulbeco's Modified Eagle's Medium, Gibco #11885) were seeded at a density of 1×10^4 cells/well into 96-well plates and incubated at 37° C. for 18 hrs under the supply of 5% CO2 until the cells stably adhered to the bottom. […] After incubation for 48 hrs in the presence of the test compound, the cells were assayed for viability.
The cells in each well was added with 21 μl of a mixture of 20:1 (v/v) of an MTS solution [(3-(4,5-dimethylthiazol-2-yl)-5-(3-carboxymethoxyphenyl)-2-(4-sulfophenyl)-2H-tetrazolium, Promega, Cat#65421; 2 mg/ml] and a PMS solution [Phenazine methosulfate, Sigma #P9625; 1 mg/ml], and incubated for 2 hrs, followed by measuring absorbance at 490 nm on a microplate reader (Molecular device, spectraMax M2). Relative to the control (media), viability by drug concentration was determined from the measurements of formazan, and the results are given in Table 2, below.

HUVECs [6] = assay: BrdU incorporation assay, VEGF-induced cell proliferation in HUVECs; format: cell-based, human; details: for inhibition of VEGF-induced proliferation in HUVECs, in words: BrdU assay, text on Tables 7 and 8
Protocol: A BrdU incorporation assay was carried out to examine whether the proliferation of HUVECs through VEGF-induced DNA synthesis is suppressed by BRN-103. HUVECs grown as in Experimental Example 2 were seeded at a density of 1×10^4 cells/well into 96-well plates. […] Thereafter, DNA synthesis in the cells was fluorescently measured using a BrdU incorporation assay kit (Roche).
Likewise, the cells were treated with various concentrations of Compound 250 (Example 26) given in Table 8, and then with VEGF, as the same manner of that of Compound 103. Intracellular DNA was also quantified, as the same manner of that of Compound 103. For comparison, the cells were not treated (control), or were treated with 10 ng/mL VEGF, alone.

[7] = tested on: eNOS (endothelial nitric oxide synthase); assay: VEGF-induced eNOS activation in HUVECs (Western blot); format: cell-based, human; details: HUVECs pretreated 1 hr, VEGF 10 ng/ml 1 hr, FIG. 9
Protocol: (§1) An examination was made to see the effect of compounds of Chemical Formula I, prepared in the Examples above, on VEGF-induced activation of AKT (serine/threonine protein kinase B)/ERK (Extracellular signal-regulated kinases) and eNOS (endothelial nitric oxide synthase) in HUVECs, as follows (endothelial nitric oxide synthase).
(§2) After 3 min of centrifugation at 4000 rpm to collect the cells, the cell pellet was washed once with PBS (phosphate buffered saline). The cell pellet suspended in a lysis buffer (50 mM HEPES pH 7.0, 250 mM NaCl, 5 mM EDTA, 0.1% Nonidet P-40, 1 mM phenylmethylsulfonyl fluoride and 0.5 mM Na orthovanadate) containing 5 μl/mL of leupeptin and aprotinin, each and the reaction was performed at 4° C. for 20 min. After the cell debris was removed by microcentrifugation, the supernatant was swiftly cooled.
(§3) Protein quantification was carried out using a Bio-Rad protein assay reagent. […]
(§4) For immunoblotting, the membrane was incubated overnight at 4° C. in a blocking solution (5% skim milk), and reacted with a primary antibody for 4 hrs. After 4 washes with Tween 20/Tris-buffered saline (TTBS), the membrane was reacted with a 1:1000 (v/v) dilution of a horseradish peroxidase-conjugated secondary antibody at room temperature for 1 hr, washed three times with TTBS, and visualized by a chemical luminescence method (Amersham Life Science).

[8] = tested on: AKT (serine/threonine protein kinase B); assay: VEGF-induced AKT activation in HUVECs (Western blot); format: cell-based, human; details: HUVECs pretreated 1 hr, VEGF 10 ng/ml 30 min, FIG. 9
Protocol: as §1, §2, §3, §4

[9] = tested on: Aortic rings excised from C57BL/6 mice; assay: Ex vivo microvessel sprouting assay, mouse aortic rings; details: mouse aortic rings, 0.1, 0.5, 1 μM, 10 ng/ml VEGF 7 days, FIG. 5
Excerpt: Sprouts from margins of the aortic rings were photographed under a microscope equipped with a camera.

[10] = tested on: ERK (Extracellular signal-regulated kinases); assay: VEGF-induced ERK activation in HUVECs (Western blot); format: cell-based, human; details: HUVECs pretreated 1 hr, VEGF 10 ng/ml 10 min, FIG. 9
Protocol: as §1, §2, §3, §4

[11] = 1 μM, 10 ng/ml VEGF 24 hrs, n=3

CC(c1ncnc(Cl)c1F)N1CCC(Nc2ncccc2C(=O)Nc2cccc(Cl)c2)CC1 (stereo not shown) [Compound 250, 2-{1-[1-(6-chloro-5-fluoropyrimidin-4-yl)ethyl]piperidin-4-ylamino}-N-(3-chlorophenyl)nicotinamide]
No. of migration cells/field ([1]; 100 nM, without VEGF): 4.5 ± 1.11 cells/field
No. of migration cells/field ([1]; VEGF + 25 nM): 33 ± 2.54 cells/field
No. of migration cells/field ([1]; VEGF + 50 nM): 20.3 ± 1.08 cells/field
No. of migration cells/field ([1]; VEGF + 100 nM): 12.5 ± 2.5 cells/field
suppression of VEGF-induced migration of HUVECs, in words [1]: remarkable suppressive effect
Wound closure (HUVECs [2]; 100 nM, without VEGF): 125 µm
Wound closure (HUVECs [2]; VEGF + 25 nM): 210 µm
Wound closure (HUVECs [2]; VEGF + 50 nM): 165 µm
Wound closure (HUVECs [2]; VEGF + 100 nM): 120 µm
suppression of VEGF-induced migration of HUVECs, in words (HUVECs [2]): highly suppresses VEGF-induced migration of HUVECs
VEGF-induced aortic sprouting [3]: inhibited VEGF-induced aortic sprouting
Number of tubes/field (HUVECs [4]; 100 nM, without VEGF): 27 ± 2 tubes/field
suppression of VEGF-induced tube formation, in words (HUVECs [4]): high suppressive effect on tube formation
Number of tubes/field (HUVECs [4]; VEGF + 25 nM): 45 ± 6 tubes/field
Number of tubes/field (HUVECs [4]; VEGF + 50 nM): 35 ± 2 tubes/field
Number of tubes/field (HUVECs [4]; VEGF + 100 nM): 28 ± 4 tubes/field
IC50 at 48 h [5]: 26.1 µM
BrdU incorporation (HUVECs [6]; 100 nM, without VEGF): 0.7 ± 0.05 OD 450 nM
inhibition of VEGF-induced proliferation in HUVECs, in words (HUVECs [6]): inhibited VEGF-induced proliferation in HUVECs
BrdU incorporation (HUVECs [6]; VEGF + 25 nM): 0.79 ± 0.02 OD 450 nM
BrdU incorporation (HUVECs [6]; VEGF + 50 nM): 0.75 ± 0.03 OD 450 nM
BrdU incorporation (HUVECs [6]; VEGF + 100 nM): 0.7 ± 0.05 OD 450 nM

CCN(CC)CCNC(=O)c1c(C)[nH]c(/C=C2\C(=O)Nc3ccc(F)cc32)c1C [Sunitinib, sunitinib, reference compound]
No. of migration cells/field [1, 11]: 16.5*** cells/field
Wound closure (HUVECs [2]; VEGF + 1 μM, 24 hrs): 210 µm
Number of tubes/field (HUVECs [4]; VEGF + 1 μM, 4 hrs): 100*** tubes/Field
IC50 at 48 h [5]: 22 µM
BrdU incorporation (HUVECs [6]; VEGF + 1 μM, 24 hrs): 0.84*** OD 450 nm

O=C(Nc1cccc(Cl)c1)c1cccnc1NC1CCN(Cc2ccccc2)CC1 [Compound 103, 2-(1-Benzylpiperidin-4-ylamino)-N-(3-chlorophenyl)nicotinamide]
No. of migration cells/field ([1]; 0.1 μM, 10 ng/ml VEGF 24 hrs, n=3): 16*** cells/field
No. of migration cells/field ([1]; 0.5 μM, 10 ng/ml VEGF 24 hrs, n=3): 12*** cells/field
No. of migration cells/field [1, 11]: 8*** cells/field
suppression of VEGF-induced migration of HUVECs, in words [1]: more suppressive than the anticancer agent sunitinib
Wound closure (HUVECs [2]; VEGF + 0.1 μM, 24 hrs): 200 µm
Wound closure (HUVECs [2]; VEGF + 0.5 μM, 24 hrs): 180 µm
Wound closure (HUVECs [2]; VEGF + 1 μM, 24 hrs): 155 µm
suppression of VEGF-induced migration of HUVECs, in words (HUVECs [2]): higher efficiency than sunitinib
p-eNOS level [7]: downregualted
suppression of VEGF-induced tube formation, in words (HUVECs [4]): more efficient in the inhibition of tube formation than sunitinib; also recorded: VEGF-induced tube formation was also suppressed
Number of tubes/field (HUVECs [4]; VEGF + 0.1 μM, 4 hrs): 90** tubes/Field
Number of tubes/field (HUVECs [4]; VEGF + 0.5 μM, 4 hrs): 80*** tubes/Field
Number of tubes/field (HUVECs [4]; VEGF + 1 μM, 4 hrs): 60*** tubes/Field
expression of p-AKT [8]: decreased the expression of p-AKT
IC50 at 48 h [5]: 40.6 µM
VEGF-induced aortic sprouting [9]: inhibited VEGF-induced aortic sprouting
BrdU incorporation (HUVECs [6]; 1 μM, without VEGF): 0.7 OD 450 nm
inhibition of VEGF-induced proliferation in HUVECs, in words (HUVECs [6]): inhibited VEGF-induced proliferation in HUVECs in a dose-dependent manner
BrdU incorporation (HUVECs [6]; VEGF + 0.1 μM, 24 hrs): 1.0*** OD 450 nm
BrdU incorporation (HUVECs [6]; VEGF + 0.5 μM, 24 hrs): 0.8*** OD 450 nm
BrdU incorporation (HUVECs [6]; VEGF + 1 μM, 24 hrs): 0.7*** OD 450 nm
expression of p-ERK [10]: did not suppress the expression of p-ERK
